system: c-Myc; experiment: c-Myc ELISA assay protocol in 22RV-1 cells; type: cell-based, human; conditions: 18 h, read-out: cMyc IC50
Procedure: In each bioassay, cells were treated with varying amounts of compounds encompassed by the present disclosure, as shown in Table 1. The degradation of the following proteins were evaluated in this study: TANK-binding kinase 1 (TBK1), estrogen receptor α (ERα), bromodomain-containing protein 4 (BRD4), androgen receptor (AR), and c-Myc.
5. c-Myc ELISA Assay Protocol
22RV-1 cells were purchased from ATCC and cultured in RPMI+10% FBS media. Cells were harvested using trypsin (Gibco #25200-114), counted and seeded at 30,000 cells/well at a volume of 75 μL/well in RPMI +10% FBS media in 96-well plates. The cells were dosed with compounds diluted in 0.1% DMSO, incubated for 18 h then washed and lysed in 50 uL RIPA buffer (50 mM Tris pH8, 150 mM NaCl, 1% Tx-100, 0.1% SDS, 0.5% sodium deoxycholate) supplemented with protease and phosphatase inhibitors. The lysates were clarified at 4000 rpm at 4° C. for 10 minutes then aliquots were added into a 96-well ELISA plate of Novex Human c-myc ELISA kit from Life Technologies Catalog #KHO2041. 50 ul of c-Myc Detection antibody was added into every well, the plates incubated at room temperature for 3 hrs, then washed with ELISA wash buffer. 100 uL of the anti-rabbit IgG-HRP secondary antibody was added to each well and incubated at room temperature for 30 minutes. The plates were washed with ELISA wash buffer, 100 μL TMB added to each well, and then monitored every 5 minutes for a color change. 100 μL of stop solution is added and the plates read at 450 nm.

| Compound | IC50 [nM] |
| --- | --- |
| Cc1sc2c(c1C)C(c1ccc(Cl)cc1)=N[C@@H](CC(=O)N[C@H](C)c1ccc(OCCOCCNc3cccc4c3C(=O)N(C3CCC(=O)NC3=O)C4=O)cc1)c1nnc(C)n1-2 (stereo partly drawn) [Compound 29, 2-((9S)-7-(4-chlorophenyl)-4,5,13-trimethyl-3-thia-1,8,11,12-tetraazatricyclo [8.3.0.02,6]trideca-2(6),4,7,10, 12-pentaen-9-yl) N-((1R)-1-(4-(2-(2-((2-(2,6-dioxopiperidin-3-yl)-1,3-dioxo-2,3-dihydro-1H-isoindol-4-yl)amino)ethoxy)ethoxy)phenyl)ethyl) acetamide] | < 50 |
| Cc1sc2c(c1C)C(c1ccc(Cl)cc1)=N[C@@H](CC(=O)N[C@H](C)c1ccc(OCCCNc3cccc4c3C(=O)N(C3CCC(=O)NC3=O)C4=O)cc1)c1nnc(C)n1-2 (stereo partly drawn) [Compound 30, 2-((9S)-7-(4-chlorophenyl)-4,5,13-trimethyl-3-thia-1,8,11,12-tetraazatricyclo [8.3.0.02,6]trideca-2(6),4,7,10, 12-pentaen-9-yl)-N-((1R)-1-(4-(3-((2-(2,6-dioxopiperidin-3-yl)-1,3-dioxo-2,3-dihydro-1H-isoindol-4-yl)amino)propoxy)phenyl)ethyl) acetamide] | < 50 |
| Cc1sc2c(c1C)C(c1ccc(Cl)cc1)=N[C@@H](CC(=O)NCCOCCNc1cccc3c1CN(C1CCC(=O)NC1=O)C3=O)c1nnc(C)n1-2 (stereo partly drawn) [Compound 39, 2-[(9S)-7-(4-chlorophenyl)-4,5,13-trimethyl-3-thia-1,8,11,12-tetraazatricyclo [8.3.0.0^2,^6]trideca-2(6),4,7,10,12-pentaen-9-yl]-N-[2-(2-{[2-(2,6-dioxopiperidin-3-yl)-1-oxo-2,3-dihydro-1H-isoindol-4-yl]amino}ethoxy)ethyl]acetamide] | > 50 |
| Cc1sc2c(c1C)C(c1ccc(Cl)cc1)=N[C@@H](CC(=O)N[C@@H](C)c1ccc(OCCCOCCNc3cccc4c3C(=O)N(C3CCC(=O)NC3=O)C4=O)cc1)c1nnc(C)n1-2 (stereo partly drawn) [Compound 41, 2-[9S)-7-(4-chlorophenyl)-4,5,13-trimethyl-3-thia-1,8,11,12-tetraazatricyclo [8.3.0.0^2,^6]trideca-2(6),4,7,10,12-pentaen-9-yl]-N-[(1S)-1-{4-[3-(2-{[2-(2,6-dioxopiperidin-3-yl)-1,3-dioxo-2,3-dihydro-1H-isoindol-4-yl]amino}ethoxy)propoxyphenyl}ethyl]acetamide] | < 50 |
| Cc1sc2c(c1C)C(c1ccc(Cl)cc1)=N[C@@H](CC(=O)Nc1ccc(OCCOCCOCCNc3cccc4nc(C)n(C5CCC(=O)NC5=O)c(=O)c34)cc1)c1nnc(C)n1-2 (stereo partly drawn) [Compound 56, 2-[(9S)-7-(4-chlorophenyl)-4,5,13-trimethyl-3-thia-1,8,11,12-tetraazatricyclo [8.3.0.0^2,^6]trideca-2(6),4,7,10,12-pentaen-9-yl]-N-(4-{2-[2-(2-{[3-(2,6-dioxopiperidin-3-yl)-2-methyl-4-oxo-3,4-dihydroquinazolin-5-yl]amino}ethoxy)ethoxy]ethoxy}phenyl)acetamide] | < 50 |
| Cc1sc2c(c1C)C(c1ccc(Cl)cc1)=N[C@@H](CC(=O)N[C@@H](C)c1ccc(OCCOCCNc3cccc4c3CN(C3CCC(=O)NC3=O)C4=O)cc1)c1nnc(C)n1-2 (stereo partly shown) [Compound 42] | < 50 |
| Cc1sc2c(c1C)C(c1ccc(Cl)cc1)=N[C@@H](CC(=O)Nc1ccc(OCCOCCOCCOCCNc3cccc4c3C(=O)N(C3CCC(=O)N(C)C3=O)C4=O)cc1)c1nnc(C)n1-2 (stereo partly drawn) [Compound 50, 2-[(9S)-7-(4-chlorophenyl)-4,5,13-trimethyl-3-thia-1,8,11,12-tetraazatricyclo [8.3.0.0^2,^6]trideca-2(6),4,7,10,12-pentaen-9-yl]-N-[4-({1-[2-(1-methyl-2,6-dioxopiperidin-3-yl)-1,3-dioxo-2,3-dihydro-1H-isoindol-4-yl]-4,7,10-trioxa-1-azadodecan-12-yl}oxy)phenyl] acetamide] | > 50 |
| Cc1sc2c(c1C)C(c1ccc(Cl)cc1)=N[C@@H](CC(=O)N[C@H](C)c1ccc(OCCCCNc3cccc4c3C(=O)N(C3CCC(=O)NC3=O)C4=O)cc1)c1nnc(C)n1-2 (stereo partly shown) [Compound 28] | < 50 |
| Cc1sc2c(c1C)C(c1ccc(Cl)cc1)=N[C@@H](CC(=O)N[C@H](C)c1cccc(OCCCNc3cccc4c3CN(C3CCC(=O)NC3=O)C4=O)c1)c1nnc(C)n1-2 (stereo partly drawn) [Compound 51, 2-[(9S)-7-(4-chlorophenyl)-4,5,13-trimethyl-3-thia-1,8,11,12-tetraazatricyclo [8.3.0.0^2,^6]trideca-2(6),4,7,10,12-pentaen-9-yl]-N-[(1R)-1-[3-(3-{[2-(2,6-dioxopiperidin-3-yl)-1-oxo-2,3-dihydro-1H-isoindol-4-yl]amino}propoxy)phenyl]ethyl] acetamide] | > 50 |
| Cc1sc2c(c1C)C(c1ccc(Cl)cc1)=N[C@@H](CC(=O)N[C@H]1CCN(C(=O)c3ccc(OCCNc4cccc5c4C(=O)N(C4CCC(=O)NC4=O)C5=O)cc3)C1)c1nnc(C)n1-2 (stereo partly drawn) [Compound 55, 2-[(9S)-7-(4-chlorophenyl)-4,5,13-trimethyl-3-thia-1,8,11,12-tetraazatricyclo [8.3.0.0^2,^6]trideca-2(6),4,7,10,12-pentaen-9-yl]-N-[(3S)-1-[4-(2-{[2-(2,6-dioxopiperidin-3-yl)-1,3-dioxo-2,3-dihydro-1H-isoindol-4-yl]amino}ethoxy)benzoyl]pyrrolidin-3-yl]acetamide] | < 50 |
| Cc1sc2c(c1C)C(c1ccc(Cl)cc1)=N[C@@H](CC(=O)NCCCOCCCNc1cccc3c1CN(C1CCC(=O)NC1=O)C3=O)c1nnc(C)n1-2 (stereo partly drawn) [Compound 54, 2-[(9S)-7-(4-chlorophenyl)-4,5,13-trimethyl-3-thia-1,8,11,12-tetraazatricyclo [8.3.0.0^2,^6]trideca-2(6),4,7,10,12-pentaen-9-yl]-N-[3-(3-{[2-(2,6-dioxopiperidin-3-yl)-1-oxo-2,3-dihydro-1H-isoindol-4-yl]amino}propoxy)propyl]acetamide] | < 50 |
| Cc1nnc2n1C1=C(C(c3ccc(Cl)cc3)=N[C@H]2CC(=O)NCCCCCNc2cccc3c2C(=O)N(C2CCC(=O)NC2=O)C3=O)C(C)C(C)S1 (stereo partly drawn) [Compound 45, 2-[(9S)-7-(4-chlorophenyl)-4,5,13-trimethyl-3-thia-1,8,11,12-tetraazatricyclo [8.3.0.0^2,^6]trideca-2(6),4,7,10,12-pentaen-9-yl]-N-(5-{[2-(2,6-dioxopiperidin-3-yl)-1,3-dioxo-2,3-dihydro-1H-isoindol-4-yl]amino}pentyl) acetamide] | < 50 |
| Cc1sc2c(c1C)C(c1ccc(Cl)cc1)=N[C@@H](CC(=O)N[C@@H](C)c1ccc(-c3ncc(OCCOCCNc4cccc5c4C(=O)N(C4CCC(=O)NC4=O)C5=O)cn3)cc1)c1nnc(C)n1-2 (stereo partly drawn) [Compound 36, 2-[(9S)-7-(4-chlorophenyl)-4,5,13-trimethyl-3-thia-1,8,11,12-tetraazatricyclo [8.3.0.0^2,^6]trideca-2(6),4,7,10,12-pentaen-9-yl]-N-[(1S)-1-(4-{5-[2-(2-{[2-(2,6-dioxopiperidin-3-yl)-1,3-dioxo-2,3-dihydro-1H-isoindol-4-yl]amino}ethoxy)ethoxy]pyrimidin-2-yl}phenyl)ethyl] acetamide] | < 50 |
| Cc1sc2c(c1C)C(c1ccc(Cl)cc1)=N[C@@H](CC(=O)N[C@@H](C)c1ccc(-c3ncc(OCCCNc4cccc5c4C(=O)N(C4CCC(=O)NC4=O)C5=O)cn3)cc1)c1nnc(C)n1-2 (stereo partly drawn) [Compound 40, 2-((S)-4-(4-chlorophenyl)-2,3,9-trimethyl-6H-thieno[3,2-f][1,2,4]triazolo[4,3-a][1,4]diazepin-6-yl)-N-((1S)-1-(4-(5-(3-(2-(2,6-dioxopiperidin-3-yl)-1,3-dioxoisoindolin-4-ylamino)propoxy)pyrimidin-2-yl)phenyl)ethyl)acetamide] | < 50 |
| Cc1sc2c(c1C)C(c1ccc(Cl)cc1)=N[C@@H](CC(=O)Nc1ccc(OCCCCOCCCNc3cccc4c3C(=O)N(C3CCC(=O)NC3=O)C4=O)c(F)c1)c1nnc(C)n1-2 (stereo partly drawn) [Compound 34, 2-((9S)-7-(4-chlorophenyl)-4,5,13-trimethyl-3-thia-1,8,11,12-tetraazatricyclo [8.3.0.02,6]trideca-2(6),4,7,10, 12-pentaen-9-yl)-N-(4-(4-(3-((2-(2,6-dioxopiperidin-3-yl)-1,3-dioxo-2,3-dihydro-1H-isoindol-4-yl)amino)propoxy)butoxy)-3-fluorphenyl) acetamide] | < 50 |
| Cc1sc2c(c1C)C(c1ccc(Cl)cc1)=N[C@@H](CC(=O)Nc1ccc(OCCOCCOCCOCCNc3cccc4c3C(=O)N(C3(C)CCC(=O)NC3=O)C4=O)cc1)c1nnc(C)n1-2 (stereo partly drawn) [Compound 49, 2-[(9S)-7-(4-chlorophenyl)-4,5,13-trimethyl-3-thia-1,8,11,12-tetraazatricyclo [8.3.0.0^2,^6]trideca-2(6),4,7,10,12-pentaen-9-yl]-N-[4-({1-[2-(3-methyl-2,6-dioxopiperidin-3-yl)-1,3-dioxo-2,3-dihydro-1H-isoindol-4-yl]-4,7,10-trioxa-1-azadodecan-12-yl}oxy)phenyl] acetamide] | > 50 |
